In ChEMBL document CHEMBL4828725 (Eur J Med Chem, 2021):

How the values were obtained:
[1] = Inhibition of rice alpha-glucosidase using p-nitrophenyl glycoside as substrate assessed as release of p-nitrophenol measured by spectrometric assay; set-up: species or system Oryza sativa; conditions: read-out: IC50
[2] = Inhibition of rat intestinal maltase using maltose as substrate assessed as release of D-glucose measured by spectrometric assay
[3] = target: T1, Sucrase-isomaltase, intestinal (Rattus norvegicus, UniProt P23739); assay: Inhibition of rat intestinal sucrase using p-nitrophenyl glycoside as substrate assessed as release of p-nitrophenol measured by spectrometric assay
T1 sequence (P23739 1-1013 limits assumed): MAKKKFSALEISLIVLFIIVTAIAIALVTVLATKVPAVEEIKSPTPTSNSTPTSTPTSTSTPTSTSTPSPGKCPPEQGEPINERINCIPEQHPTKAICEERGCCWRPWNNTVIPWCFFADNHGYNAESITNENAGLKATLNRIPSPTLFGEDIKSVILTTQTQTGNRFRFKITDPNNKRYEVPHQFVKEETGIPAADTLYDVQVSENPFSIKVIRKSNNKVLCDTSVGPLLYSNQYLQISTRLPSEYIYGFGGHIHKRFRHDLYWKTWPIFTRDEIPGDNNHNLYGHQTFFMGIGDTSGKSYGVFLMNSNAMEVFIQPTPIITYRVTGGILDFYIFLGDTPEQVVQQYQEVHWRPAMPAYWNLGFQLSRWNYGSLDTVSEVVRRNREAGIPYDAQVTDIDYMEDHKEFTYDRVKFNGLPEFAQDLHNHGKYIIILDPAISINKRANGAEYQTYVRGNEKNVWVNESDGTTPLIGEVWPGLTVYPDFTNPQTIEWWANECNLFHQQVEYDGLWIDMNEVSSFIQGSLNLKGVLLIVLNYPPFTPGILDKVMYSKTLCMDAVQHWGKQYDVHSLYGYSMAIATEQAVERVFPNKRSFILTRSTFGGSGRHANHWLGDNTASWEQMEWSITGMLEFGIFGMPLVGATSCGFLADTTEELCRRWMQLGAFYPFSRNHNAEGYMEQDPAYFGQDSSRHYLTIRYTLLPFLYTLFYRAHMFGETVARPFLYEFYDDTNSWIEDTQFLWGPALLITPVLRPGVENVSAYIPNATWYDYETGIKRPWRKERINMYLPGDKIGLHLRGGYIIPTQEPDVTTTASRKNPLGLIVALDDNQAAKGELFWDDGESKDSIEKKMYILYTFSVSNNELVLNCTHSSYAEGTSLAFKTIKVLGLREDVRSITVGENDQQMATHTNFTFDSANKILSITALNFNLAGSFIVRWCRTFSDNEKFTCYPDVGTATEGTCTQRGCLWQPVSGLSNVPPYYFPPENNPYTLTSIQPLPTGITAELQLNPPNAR
T1 sequence (P23739 1014-1841 limits assumed): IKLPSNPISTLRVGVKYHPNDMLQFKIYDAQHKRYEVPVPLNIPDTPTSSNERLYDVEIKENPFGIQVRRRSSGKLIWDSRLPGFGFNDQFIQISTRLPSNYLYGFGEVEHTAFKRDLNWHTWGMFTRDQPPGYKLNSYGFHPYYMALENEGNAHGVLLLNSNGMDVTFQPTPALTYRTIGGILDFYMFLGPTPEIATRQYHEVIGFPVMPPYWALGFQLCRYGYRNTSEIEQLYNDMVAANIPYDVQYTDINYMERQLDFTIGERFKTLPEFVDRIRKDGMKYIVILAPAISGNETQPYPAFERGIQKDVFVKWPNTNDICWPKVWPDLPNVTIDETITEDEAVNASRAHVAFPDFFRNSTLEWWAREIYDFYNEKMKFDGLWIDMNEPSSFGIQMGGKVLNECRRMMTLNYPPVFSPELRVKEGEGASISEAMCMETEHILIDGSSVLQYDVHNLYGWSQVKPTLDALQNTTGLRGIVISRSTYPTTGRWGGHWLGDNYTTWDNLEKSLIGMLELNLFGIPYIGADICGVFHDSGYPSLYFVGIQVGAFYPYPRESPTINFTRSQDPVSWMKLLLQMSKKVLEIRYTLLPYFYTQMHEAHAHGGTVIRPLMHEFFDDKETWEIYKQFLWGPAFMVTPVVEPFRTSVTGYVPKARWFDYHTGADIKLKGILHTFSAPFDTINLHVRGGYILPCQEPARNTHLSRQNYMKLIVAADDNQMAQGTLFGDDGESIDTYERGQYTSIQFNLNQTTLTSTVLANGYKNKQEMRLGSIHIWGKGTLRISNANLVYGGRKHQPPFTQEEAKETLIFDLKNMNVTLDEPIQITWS

[4] = target: T1, Sucrase-isomaltase, intestinal; assay: Inhibition of rat intestinal isomaltase using p-nitrophenyl glycoside as substrate assessed as release of p-nitrophenol measured by spectrometric assay
[5] = Inhibition of almond beta-glucosidase using p-nitrophenyl glycoside as substrate assessed as release of p-nitrophenol measured by spectrometric assay; set-up: species or system Prunus dulcis
Prunus dulcis = assay: Inhibition of almond beta-glucosidase using p-nitrophenyl glycoside as substrate assessed as release of p-nitrophenol at 1000 uM measured by spectrometric assay relative to control
[6] = Inhibition of bovine liver beta-glucosidase using p-nitrophenyl glycoside as substrate assessed as release of p-nitrophenol measured by spectrometric assay; set-up: species or system Bos taurus
Bos taurus [7] = species on record: Bos taurus; assay: Inhibition of bovine liver beta-glucosidase using p-nitrophenyl glycoside as substrate assessed as release of p-nitrophenol at 1000 uM measured by spectrometric assay relative to control; type: tissue-based
Alpha-galactosidase = Alpha-galactosidase (Coffea arabica, UniProt Q42656); assay: Inhibition of coffee beans alpha-galactosidase using p-nitrophenyl glycoside as substrate assessed as release of p-nitrophenol measured by spectrometric assay
Chain of Alpha-galactosidase (Q42656 whole entry): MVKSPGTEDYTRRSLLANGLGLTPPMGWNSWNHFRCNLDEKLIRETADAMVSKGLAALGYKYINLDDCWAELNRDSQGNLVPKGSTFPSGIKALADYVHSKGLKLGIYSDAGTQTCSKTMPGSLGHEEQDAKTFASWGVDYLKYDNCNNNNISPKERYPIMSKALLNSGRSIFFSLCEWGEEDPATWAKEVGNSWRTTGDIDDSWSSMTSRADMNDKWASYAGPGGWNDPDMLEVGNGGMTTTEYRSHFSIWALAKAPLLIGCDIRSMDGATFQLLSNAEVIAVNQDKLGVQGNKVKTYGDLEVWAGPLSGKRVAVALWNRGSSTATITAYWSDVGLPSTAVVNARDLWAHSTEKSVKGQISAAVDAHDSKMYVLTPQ

[8] = target: Alpha-galactosidase (Coffea arabica) (UniProt Q42656); assay: Inhibition of coffee beans alpha-galactosidase using p-nitrophenyl glycoside as substrate assessed as release of p-nitrophenol at 1000 uM measured by spectrometric assay relative to control
Chain of Alpha-galactosidase (Coffea arabica) (Q42656 16-378 limits assumed): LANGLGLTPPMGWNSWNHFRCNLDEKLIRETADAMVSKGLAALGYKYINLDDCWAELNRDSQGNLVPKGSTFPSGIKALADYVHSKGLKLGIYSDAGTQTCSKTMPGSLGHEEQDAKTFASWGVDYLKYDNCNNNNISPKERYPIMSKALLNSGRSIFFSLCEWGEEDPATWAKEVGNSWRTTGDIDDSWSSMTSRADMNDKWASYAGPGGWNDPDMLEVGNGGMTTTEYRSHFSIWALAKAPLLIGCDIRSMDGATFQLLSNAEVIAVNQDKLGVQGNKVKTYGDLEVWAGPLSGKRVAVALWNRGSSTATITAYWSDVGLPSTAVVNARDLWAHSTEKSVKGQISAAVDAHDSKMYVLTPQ

[9] = Inhibition of bovine liver beta-galactosidase using p-nitrophenyl glycoside as substrate assessed as release of p-nitrophenol measured by spectrometric assay; type: tissue-based, Bos taurus
Bos taurus [10] = species on record: Bos taurus; assay: Inhibition of bovine liver beta-galactosidase using p-nitrophenyl glycoside as substrate assessed as release of p-nitrophenol at 1000 uM measured by spectrometric assay relative to control
[11] = Inhibition of jack bean alpha-mannosidase using p-nitrophenyl glycoside as substrate assessed as release of p-nitrophenol measured by spectrometric assay; set-up: species or system Canavalia ensiformis
[12] = target: T2, Alpha-mannosidase (Canavalia ensiformis) (UniProt C0HJB3); assay: Inhibition of jack bean alpha-mannosidase using p-nitrophenyl glycoside as substrate assessed as release of p-nitrophenol at 1000 uM measured by spectrometric assay relative to control
T2 sequence (whole entry): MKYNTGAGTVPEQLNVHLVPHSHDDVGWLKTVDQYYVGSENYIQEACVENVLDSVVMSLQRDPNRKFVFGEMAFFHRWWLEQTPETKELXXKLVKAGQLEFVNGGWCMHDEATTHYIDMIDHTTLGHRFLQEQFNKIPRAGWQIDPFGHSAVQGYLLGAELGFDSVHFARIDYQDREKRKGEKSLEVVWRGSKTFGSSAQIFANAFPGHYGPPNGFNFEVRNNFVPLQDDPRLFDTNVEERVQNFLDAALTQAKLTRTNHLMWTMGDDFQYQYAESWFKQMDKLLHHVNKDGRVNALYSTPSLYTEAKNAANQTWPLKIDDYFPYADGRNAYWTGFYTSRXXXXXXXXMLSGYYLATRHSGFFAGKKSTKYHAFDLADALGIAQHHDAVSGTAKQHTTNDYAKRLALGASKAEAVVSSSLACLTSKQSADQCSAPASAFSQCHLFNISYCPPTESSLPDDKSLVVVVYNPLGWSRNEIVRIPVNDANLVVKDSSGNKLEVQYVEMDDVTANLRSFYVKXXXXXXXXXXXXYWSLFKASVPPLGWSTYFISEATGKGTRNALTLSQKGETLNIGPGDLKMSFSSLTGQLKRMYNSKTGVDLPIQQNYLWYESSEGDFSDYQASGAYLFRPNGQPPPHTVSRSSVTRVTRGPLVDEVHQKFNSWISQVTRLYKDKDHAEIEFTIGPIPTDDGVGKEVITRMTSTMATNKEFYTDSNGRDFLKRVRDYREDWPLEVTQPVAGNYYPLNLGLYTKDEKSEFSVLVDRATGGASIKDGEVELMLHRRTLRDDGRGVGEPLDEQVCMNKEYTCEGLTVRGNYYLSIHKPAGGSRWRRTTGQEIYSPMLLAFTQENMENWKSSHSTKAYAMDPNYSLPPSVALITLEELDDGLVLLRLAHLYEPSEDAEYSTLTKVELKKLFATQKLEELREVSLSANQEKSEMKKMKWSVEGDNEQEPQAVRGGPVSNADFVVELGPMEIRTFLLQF

[13] = Inhibition of snail beta-mannosidase using p-nitrophenyl glycoside as substrate assessed as release of p-nitrophenol measured by spectrometric assay; set-up: species or system Helix pomatia
Helix pomatia = assay: Inhibition of snail beta-mannosidase using p-nitrophenyl glycoside as substrate assessed as release of p-nitrophenol at 1000 uM measured by spectrometric assay relative to control
[14] = target: T3, Tissue alpha-L-fucosidase (Bos taurus, UniProt Q2KIM0); assay: Inhibition of bovine kidney alpha-L-fucosidase using p-nitrophenyl glycoside as substrate assessed as release of p-nitrophenol measured by spectrometric assay
T3 sequence (Q2KIM0 whole entry): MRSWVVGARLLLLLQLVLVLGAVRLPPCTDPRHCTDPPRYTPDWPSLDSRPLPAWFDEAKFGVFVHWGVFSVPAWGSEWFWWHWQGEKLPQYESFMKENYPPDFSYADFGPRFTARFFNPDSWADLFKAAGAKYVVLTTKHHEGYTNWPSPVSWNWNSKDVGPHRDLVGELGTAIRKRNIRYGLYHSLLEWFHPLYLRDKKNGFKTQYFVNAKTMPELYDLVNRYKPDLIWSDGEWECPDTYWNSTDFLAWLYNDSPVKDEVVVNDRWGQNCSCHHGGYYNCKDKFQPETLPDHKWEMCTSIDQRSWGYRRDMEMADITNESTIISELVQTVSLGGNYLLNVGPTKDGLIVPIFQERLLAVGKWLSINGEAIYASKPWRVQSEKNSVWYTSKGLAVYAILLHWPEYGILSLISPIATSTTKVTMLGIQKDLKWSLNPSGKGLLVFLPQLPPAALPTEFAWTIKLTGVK

[15] = target: T4, Tissue alpha-L-fucosidase (Bos taurus) (UniProt Q2KIM0); assay: Inhibition of bovine kidney alpha-L-fucosidase using p-nitrophenyl glycoside as substrate assessed as release of p-nitrophenol at 1000 uM measured by spectrometric assay relative to control; type: tissue-based
T4 sequence (whole entry): T3 sequence (Q2KIM0 whole entry)

[16] = Inhibition of porcine kidney alpha-trehalase using p-nitrophenyl glycoside as substrate assessed as release of p-nitrophenol measured by spectrometric assay; set-up: species or system Sus scrofa
Sus scrofa = species on record: Sus scrofa; assay: Inhibition of porcine kidney alpha-trehalase using p-nitrophenyl glycoside as substrate assessed as release of p-nitrophenol at 1000 uM measured by spectrometric assay relative to control
[17] = Inhibition of Aspergillus niger amyloglucosidase using p-nitrophenyl glycoside as substrate assessed as release of p-nitrophenol measured by spectrometric assay
Aspergillus niger = assay: Inhibition of Aspergillus niger amyloglucosidase using p-nitrophenyl glycoside as substrate assessed as release of p-nitrophenol at 1000 uM measured by spectrometric assay relative to control
[18] = Inhibition of Penicillium decumbens alpha-L-rhamnosidase using p-nitrophenyl glycoside as substrate assessed as release of p-nitrophenol measured by spectrometric assay
Penicillium decumbens = assay: Inhibition of Penicillium decumbens alpha-L-rhamnosidase using p-nitrophenyl glycoside as substrate assessed as release of p-nitrophenol at 1000 uM measured by spectrometric assay relative to control
Beta-glucuronidase = Beta-glucuronidase (Escherichia coli (strain K12), UniProt P05804); assay: Inhibition of Escherichia coli beta-glucuronidase using p-nitrophenyl glycoside as substrate assessed as release of p-nitrophenol measured by spectrometric assay
Chain of Beta-glucuronidase (P05804 whole entry): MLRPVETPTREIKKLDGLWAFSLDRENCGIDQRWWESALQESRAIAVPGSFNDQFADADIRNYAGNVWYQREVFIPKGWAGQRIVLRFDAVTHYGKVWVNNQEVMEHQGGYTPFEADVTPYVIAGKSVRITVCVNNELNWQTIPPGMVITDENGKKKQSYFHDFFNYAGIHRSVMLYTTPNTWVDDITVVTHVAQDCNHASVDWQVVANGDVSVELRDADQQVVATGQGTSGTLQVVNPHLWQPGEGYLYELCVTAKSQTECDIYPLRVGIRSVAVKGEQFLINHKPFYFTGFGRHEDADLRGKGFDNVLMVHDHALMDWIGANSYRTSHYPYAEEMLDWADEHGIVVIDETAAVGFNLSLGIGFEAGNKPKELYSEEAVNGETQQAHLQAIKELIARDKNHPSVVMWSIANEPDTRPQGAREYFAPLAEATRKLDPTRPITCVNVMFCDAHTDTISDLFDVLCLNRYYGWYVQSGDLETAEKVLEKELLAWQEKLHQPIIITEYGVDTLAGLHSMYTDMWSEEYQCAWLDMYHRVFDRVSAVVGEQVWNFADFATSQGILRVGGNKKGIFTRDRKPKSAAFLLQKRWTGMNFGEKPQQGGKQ

[19] = target: Beta-glucuronidase (Escherichia coli (strain K12)) (UniProt P05804); assay: Inhibition of Escherichia coli beta-glucuronidase using p-nitrophenyl glycoside as substrate assessed as release of p-nitrophenol at 1000 uM measured by spectrometric assay relative to control
Chain of Beta-glucuronidase (Escherichia coli (strain K12)) (P05804 whole entry, looked up): as the sequence (P05804 whole entry) above

Rattus norvegicus = species on record: Rattus norvegicus; assay: Inhibition of rat intestinal maltase using maltose as substrate assessed as release of D-glucose at 1000 uM measured by spectrometric assay

SMILES | IC50 [1] | IC50 [2] | IC50 [5] | inhibition (Prunus dulcis) | IC50 (Alpha-galactosidase) | inhibition [8] | IC50 [11] | inhibition [12] | IC50 [13] | inhibition (Helix pomatia) | IC50 [14] | inhibition [15] | IC50 [16] | inhibition (Sus scrofa) | IC50 [17] | inhibition (Aspergillus niger) | IC50 [18] | inhibition (Penicillium decumbens) | IC50 (Beta-glucuronidase) | inhibition [19] | further results
CCCCCCCC[C@@]1(CO)NC[C@H](O)[C@@H](O)[C@@H]1O.Cl | 123 µM | 224 µM | Not Active | 14.8% | Not Active | 3.3% | Not Active | 9.6% | Not Active | 4.9% | Not Active | 5.5% | Not Active | 0% | Not Active | 0.83% | Not Active | 6% | Not Active | 9.4% | IC50 [3]: Not Active; IC50 [4]: Not Active; IC50 [6]: Not Active; inhibition (Bos taurus [7]): 19%; IC50 [9]: Not Active; inhibition (Bos taurus [10]): 44.9%; inhibition (Rattus norvegicus): 23.2%
CC[C@@]1(CO)NC[C@H](O)[C@@H](O)[C@@H]1O.Cl | 14 µM | 6.6 µM | Not Active | 6.2% | Not Active | 3.5% | Not Active | 2.4% | Not Active | 1.1% | Not Active | 2.1% | Not Active | 1.5% | Not Active | 0% | Not Active | 0% | Not Active | 0.4% | IC50 ([3]; read-out: IC50): 8.8 µM; IC50 ([4]; read-out: IC50): 50 µM; IC50 [6]: Not Active; inhibition (Bos taurus [7]): 9.2%; IC50 [9]: Not Active; inhibition (Bos taurus [10]): 18.4%
CCCCCCC[C@@]1(CO)NC[C@H](O)[C@@H](O)[C@@H]1O.Cl | 9.9 µM | 19 µM | Not Active | 6.9% | Not Active | 8% | Not Active | 2.4% | Not Active | 0% | Not Active | 0% | Not Active | 4.2% | Not Active | 11.9% | Not Active | 0% | Not Active | 2.5% | IC50 ([3]; read-out: IC50): 89 µM; IC50 [4]: Not Active; IC50 [6]: Not Active; inhibition (Bos taurus [7]): 16.5%; IC50 [9]: Not Active; inhibition (Bos taurus [10]): 28.4%
CCC[C@]1(CO)NC[C@H](O)[C@@H](O)[C@@H]1O.Cl | 0.088 µM | 0.096 µM | Not Active | 5.7% | Not Active | 11% | Not Active | 7.9% | Not Active | 1.5% | Not Active | 9.9% | Not Active | 4.3% | Not Active | 1.9% | Not Active | 3.6% | Not Active | 8.6% | IC50 ([3]; read-out: IC50): 0.2 µM; IC50 ([4]; read-out: IC50): 1.7 µM; IC50 [6]: Not Active; inhibition (Bos taurus [7]): 10.3%; IC50 [9]: Not Active; inhibition (Bos taurus [10]): 15.7%
C[C@@]1(CO)NC[C@H](O)[C@@H](O)[C@@H]1O.Cl | 38 µM | 22 µM | Not Active | 9.5% | Not Active | 9.3% | Not Active | 9.6% | Not Active | 2% | Not Active | 13.8% | Not Active | 7.5% | Not Active | 2.7% | Not Active | 0% | Not Active | 17.7% | IC50 ([3]; read-out: IC50): 25 µM; IC50 [4]: Not Active; IC50 [6]: Not Active; inhibition (Bos taurus [7]): 3.6%; IC50 [9]: Not Active; inhibition (Bos taurus [10]): 14.1%
CCCCCCCCCC[C@@]1(CO)NC[C@H](O)[C@@H](O)[C@@H]1O.Cl | 159 µM | 263 µM | Not Active | 8.8% | Not Active | 2.1% | Not Active | 4.7% | Not Active | 0% | Not Active | 0% | Not Active | 3% | Not Active | 10.5% | Not Active | 0% | Not Active | 3.2% | IC50 [3]: Not Active; IC50 [4]: Not Active; IC50 ([6]; read-out: IC50): 83 µM; IC50 ([9]; read-out: IC50): 43 µM; inhibition (Rattus norvegicus): 0%
